Where a name gives a salt, the structure may show the parent alone. Some results are limits rather than exact numbers.

T1 sequence (O43683 whole entry): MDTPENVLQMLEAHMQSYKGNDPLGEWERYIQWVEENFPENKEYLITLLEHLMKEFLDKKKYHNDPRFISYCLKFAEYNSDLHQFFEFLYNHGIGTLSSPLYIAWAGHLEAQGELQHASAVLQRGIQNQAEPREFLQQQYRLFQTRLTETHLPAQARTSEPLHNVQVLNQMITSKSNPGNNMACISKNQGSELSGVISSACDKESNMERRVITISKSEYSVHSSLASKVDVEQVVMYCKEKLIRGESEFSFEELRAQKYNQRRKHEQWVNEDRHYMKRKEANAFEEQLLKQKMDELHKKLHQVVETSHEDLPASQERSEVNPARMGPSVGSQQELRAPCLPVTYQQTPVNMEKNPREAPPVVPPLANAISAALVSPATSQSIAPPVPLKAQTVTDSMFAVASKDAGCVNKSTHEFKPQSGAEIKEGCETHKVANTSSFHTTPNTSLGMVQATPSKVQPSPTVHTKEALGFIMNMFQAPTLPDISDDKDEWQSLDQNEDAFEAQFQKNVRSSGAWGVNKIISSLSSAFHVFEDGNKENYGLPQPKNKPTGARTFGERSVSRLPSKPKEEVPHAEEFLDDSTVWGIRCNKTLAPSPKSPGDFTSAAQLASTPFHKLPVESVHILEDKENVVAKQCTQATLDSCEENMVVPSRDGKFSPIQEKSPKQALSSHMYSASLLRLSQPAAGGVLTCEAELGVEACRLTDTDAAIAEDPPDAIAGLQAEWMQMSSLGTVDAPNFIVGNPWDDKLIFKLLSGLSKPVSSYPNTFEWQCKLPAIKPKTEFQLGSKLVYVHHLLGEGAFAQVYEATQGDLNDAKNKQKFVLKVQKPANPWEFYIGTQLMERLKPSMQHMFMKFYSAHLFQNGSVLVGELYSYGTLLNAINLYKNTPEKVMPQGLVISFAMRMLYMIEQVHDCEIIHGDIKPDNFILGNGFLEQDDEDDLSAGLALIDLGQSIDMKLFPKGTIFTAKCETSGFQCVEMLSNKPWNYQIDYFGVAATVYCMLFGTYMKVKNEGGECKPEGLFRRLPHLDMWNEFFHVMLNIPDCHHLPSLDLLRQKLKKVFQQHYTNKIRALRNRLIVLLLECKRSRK
T1 sequence (O43684 whole entry partner): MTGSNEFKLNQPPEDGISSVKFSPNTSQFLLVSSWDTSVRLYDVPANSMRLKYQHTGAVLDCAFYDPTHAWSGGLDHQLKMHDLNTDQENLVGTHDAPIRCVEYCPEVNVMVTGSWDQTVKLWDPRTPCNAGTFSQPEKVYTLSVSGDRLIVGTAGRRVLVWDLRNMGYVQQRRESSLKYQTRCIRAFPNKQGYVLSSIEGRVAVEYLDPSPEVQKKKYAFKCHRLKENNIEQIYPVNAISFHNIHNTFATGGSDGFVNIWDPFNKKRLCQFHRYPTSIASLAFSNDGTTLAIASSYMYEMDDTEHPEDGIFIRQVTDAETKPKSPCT

The first assay has as its target T1, hBUB1 (Homo sapiens, UniProt O43683).
T1 construct: purchased Carna Biosciences 05-187
The experiment in a line: hBUB1 kinase activity assay (biochemical fluorescence polarization assay, IMAP). Conditions: BUB1/BUB3 3.26 nM, ATP 15 µM, BUB1/BUB3 substrate 75 nM; N=2, n=2. The procedure:
This protocol describes how the Kinase Activity Assay was performed to determine pIC50 values of compounds of general formula (I) against hBUB1.
Assays were performed in 384-well plates (Greiner, black, flat bottom, 781076) by sequential addition (final concentrations are indicated) of inhibitor (5 µL, 0.3 nM - 1 µM or 3 nM - 10 µM), BUB1/BUB3 (5 µL, 3.26 nM, Carna Biosciences (05-187), lot: 15CBS-0644 D), ATP (5 µL, 15 µM) and BUB1/BUB3 substrate (5 µL, 75 nM, Carna Biosciences (05-187MSSU)), all as 4x working solutions. The final concentration of DMSO was 1%. Assay reactions were stopped by addition of IMAP progressive binding reagent (20 µL, 1200x diluted, Molecular Devices (R8155), lot: 3117896). Each assay included the following controls: (i) a background control (treated with vehicle instead of inhibitor and BUB1/BUB3 substrate), (ii) MIN controls (treated with 5 µM BAY1816032 (MedChem Express) as inhibitor, used as 0% BUB1 activity) and (iii) MAX controls (treated with vehicle instead of inhibitor, used as 100% BUB1 activity). All inhibitors were tested in two separate assays and all inhibitor concentrations were tested in duplicate per assay (N=2, n=2).
For each assay, assay buffer (AB) was freshly prepared and consisted of 20 mM HEPES (prepared by diluting 1 M HEPES, pH 7.2), 5 mM MgCl2, 0.01% Tween-20 and 1 mM DTT. Stocks of inhibitors (in DMSO) were diluted in AB to obtain 4x working solutions (4% DMSO) and 5 µL was added to the assay plate. BUB1/BUB3 (3.26 µM (486 µg/mL) in storage buffer) was diluted in AB to obtain 13.0 nM of which 5 µL was added to all wells of the assay plate. The assay plate was centrifuged (1 min, 200 g) and incubated at RT for 30 min. ATP (4 mM in MilliQ) was diluted in AB to obtain 60 µM of which 5 µL was added to each well. BUB1/BUB3 substrate (1 mM) was diluted in 20 mM HEPES (prepared by diluting 1 M HEPES (pH 7.2) in MilliQ) to obtain 80 µM (this solution was freshly prepared every assay) and further diluted in AB to obtain 300 nM after which 5 µL was added to each well of the assay plate except for background control wells. The assay plate was centrifuged (1 min, 200 g) and incubated at RT in the dark for 180 min. IMAP progressive binding buffer A (5x) and IMAP progressive binding buffer B (5x) were mixed in a ratio to obtain 30% buffer A and 70% buffer B, which was subsequently diluted 5x in MilliQ. IMAP progressive binding reagent was diluted 600x in aforementioned mixture of buffer A and B (to obtain a 2x working solution) of which 20 µL was added to each well of the assay plate. The assay plate was centrifuged (1 min, 200 g) and incubated at RT in the dark for 90 min. Fluorescence polarization was measured on a CLARIOstar plate reader using the following settings: (i) optic settings → excitation = F: 482-16, dichroic = F: LP 504, emission = F: 530-40, (ii) optic = top optic, (iii) speed/precision = maximum precision, (iv) focus adjustment was performed for every assay and (v) gain adjustment was done by setting the target mP value to 35 mP for one of the MIN control wells. Data was normalized between MIN and MAX controls and data was plotted using GraphPad Prism 8.0 using "Nonlinear regression (curve fit)" and "log(inhibitor) vs. normalized response - Variable slope" to determine pIC50 values.
Inhibition is indicated as pIC50 ("-" = not measured). Compounds having an activity designated as "A" provided an pIC50 ≥ 7.0 (IC50 ≤100 nM); compounds having an activity designated as "B" provided an 6.3 ≤ pIC50 < 7.0 (100 nM<IC50 ≤ 500 nM); compounds having an activity designated as "C" provided an 6.0 ≤ pIC50 < 6.3 (500 nM < IC50 ≤ 1 µM); compounds having an activity designated as "D" provided an 6.0 < pIC50 ≤ 5.0 (1 µM < IC50 ≤ 10 µM); and compounds having an activity designated as "E" provided an pIC50 < 5.0 (IC50 >10 µM).
Consider `c1ccc(-c2nccc(Nc3c[nH]nc3-c3nc4ccccc4[nH]3)n2)cc1` [Compound 23, N-(3-(1H-benzo[d]imidazol-2-yl)-1H-pyrazol-4-yl)-2-phenylpyrimidin-4-amine], for which the “hBUB1 pIC50” value is “D (6.0 < pIC50 ≤ 5.0 (1 µM < IC50 ≤ 10 µM))”. Still for that read-out and setting: to `Cc1ccccc1-c1nccc(Nc2c[nH]nc2-c2nc3ccccc3[nH]2)n1` [Compound 24, N-(3-(1H-benzo[d]imidazol-2-yl)-1H-pyrazol-4-yl)-2-(o-tolyl)pyrimidin-4-amine] belongs “D (6.0 < pIC50 ≤ 5.0 (1 µM < IC50 ≤ 10 µM))”; to `COc1ccccc1-c1nccc(Nc2c[nH]nc2-c2nc3ccccc3[nH]2)n1` [Compound 26, N-(3-(1H-Benzo[d]imidazol-2-yl)-1H-pyrazol-4-yl)-2-(2-methoxyphenyl)pyrimidin-4-amine], “D (6.0 < pIC50 ≤ 5.0 (1 µM < IC50 ≤ 10 µM))”. Still for that read-out and setting: in the case of `CC(C)c1cccc(-c2nccc(Nc3c[nH]nc3-c3nc4ccccc4[nH]3)n2)c1` [Compound 30, N-(3-(1H-Benzo[d]imidazol-2-yl)-1H-pyrazol-4-yl)-2-(3-isopropylphenyl)pyrimidin-4-amine] it was “D (6.0 < pIC50 ≤ 5.0 (1 µM < IC50 ≤ 10 µM))”; in that of `Cc1ccc(-c2nccc(Nc3c[nH]nc3-c3nc4ccccc4[nH]3)n2)cc1` [Compound 32, N-(3-(1H-Benzo[d]imidazol-2-yl)-1H-pyrazol-4-yl)-2-(p-tolyl)pyrimidin-4-amine], “D (6.0 < pIC50 ≤ 5.0 (1 µM < IC50 ≤ 10 µM))”; in that of `Clc1ccc(-c2nccc(Nc3c[nH]nc3-c3nc4ccccc4[nH]3)n2)cc1` [Compound 33, N-(3-(1H-Benzo[d]imidazol-2-yl)-1H-pyrazol-4-yl)-2-(4-chlorophenyl)pyrimidin-4-amine], “D (6.0 < pIC50 ≤ 5.0 (1 µM < IC50 ≤ 10 µM))”. As to `COc1ccc(-c2nccc(Nc3c[nH]nc3-c3nc4ccccc4[nH]3)n2)cc1` [Compound 34, N-(3-(1H-Benzo[d]imidazol-2-yl)-1H-pyrazol-4-yl)-2-(4-methoxyphenyl)pyrimidin-4-amine], the “hBUB1 pIC50” value is reported as “D (6.0 < pIC50 ≤ 5.0 (1 µM < IC50 ≤ 10 µM))”.

For the molecule `c1ccc2c(-c3nccc(Nc4c[nH]nc4-c4nc5ccccc5[nH]4)n3)cccc2c1` [Compound 36, N-(3-(1H-Benzo[d]imidazol-2-yl)-1H-pyrazol-4-yl)-2-(naphthalen-1-yl)pyrimidin-4-amine], the “hBUB1 pIC50” value is listed as “D (6.0 < pIC50 ≤ 5.0 (1 µM < IC50 ≤ 10 µM))”. Take `c1ccc2[nH]c(-c3n[nH]cc3Nc3ccnc(-c4cccc5[nH]ncc45)n3)nc2c1` [Compound 38, N-(3-(1H-Benzo[d]imidazol-2-yl)-1H-pyrazol-4-yl)-2-(1H-indazol-4-yl)pyrimidin-4-amine]: the “hBUB1 pIC50” value was “D (6.0 < pIC50 ≤ 5.0 (1 µM < IC50 ≤ 10 µM))”. Same read-out and setting: to `c1ccc2cc(-c3nccc(Nc4c[nH]nc4-c4nc5ccccc5[nH]4)n3)ccc2c1` [Compound 39, N-(3-(1H-Benzo[d]imidazol-2-yl)-1H-pyrazol-4-yl)-2-(naphthalen-2-yl)pyrimidin-4-amine] belongs “D (6.0 < pIC50 ≤ 5.0 (1 µM < IC50 ≤ 10 µM))”.

Staying with this assay, now noted: BUB1/BUB3 3.26 nM, ATP 15 µM, BUB1/BUB3 substrate 75 nM; N=2, n=2; read-out: hBUB1 pIC50 (converted).
In the case of `C#Cc1nccc(Nc2c[nH]nc2-c2nc3cc(CN4CCOCC4)ccc3[nH]2)n1` [Compound 15, 2-ethynyl-N-(3-(5-(morpholinomethyl)-1H-benzo[d]imidazol-2-yl)-1H-pyrazol-4-yl)pyrimidin-4-amine], the IC50 was 100 to 501 nM. Same read-out and setting: to `c1ccc(CCOc2nccc(Nc3c[nH]nc3-c3nc4cc(CN5CCOCC5)ccc4[nH]3)n2)cc1` [Compound 19, N-(3-(5-(morpholinomethyl)-1H-benzo[d]imidazol-2-yl)-1H-pyrazol-4-yl)-2-phenethoxypyrimidin-4-amine] belongs 501 to 1000 nM; to `c1cnn(-c2nccc(Nc3c[nH]nc3-c3nc4cc(CN5CCOCC5)ccc4[nH]3)n2)c1` [Compound 20, N-(3-(5-(Morpholinomethyl)-1H-benzo[d]imidazol-2-yl)-1H-pyrazol-4-yl)-2-(1H-pyrazol-1-yl)pyrimidin-4-amine], 501 to 1000 nM.

`c1cc(Nc2c[nH]nc2-c2nc3cc(CN4CCOCC4)ccc3[nH]2)nc(-c2ccsc2)n1` [Compound 21, N-(3-(5-(morpholinomethyl)-1H-benzo[d]imidazol-2-yl)-1H-pyrazol-4-yl)-2-(thiophen-3-yl)pyrimidin-4-amine hydrochloride]: the IC50 is 501 to 1000 nM.

`c1csc(-c2nccc(Nc3c[nH]nc3-c3nc4cc(CN5CCOCC5)ccc4[nH]3)n2)c1` [Compound 22, N-(3-(5-(morpholinomethyl)-1H-benzo[d]imidazol-2-yl)-1H-pyrazol-4-yl)-2-(thiophen-2-yl)pyrimidin-4-amine hydrochloride]: the IC50 is 501 to 1000 nM. On the same count and under the same terms, to `Clc1ccccc1-c1nccc(Nc2c[nH]nc2-c2nc3ccccc3[nH]2)n1` [Compound 25, N-(3-(1H-Benzo[d]imidazol-2-yl)-1H-pyrazol-4-yl)-2-(2-chlorophenyl)pyrimidin-4-amine] belongs 501 to 1000 nM; to `Cc1cccc(-c2nccc(Nc3c[nH]nc3-c3nc4ccccc4[nH]3)n2)c1` [Compound 27, N-(3-(1H-Benzo[d]imidazol-2-yl)-1H-pyrazol-4-yl)-2-(m-tolyl)pyrimidin-4-amine], 100 to 501 nM. The same measure, in the same setting: to `Clc1cccc(-c2nccc(Nc3c[nH]nc3-c3nc4ccccc4[nH]3)n2)c1` [Compound 28, N-(3-(1H-Benzo[d]imidazol-2-yl)-1H-pyrazol-4-yl)-2-(3-chlorophenyl)pyrimidin-4-amine] belongs 100 to 501 nM; to `COc1cccc(-c2nccc(Nc3c[nH]nc3-c3nc4ccccc4[nH]3)n2)c1` [Compound 29, N-(3-(1H-Benzo[d]imidazol-2-yl)-1H-pyrazol-4-yl)-2-(3-methoxyphenyl)pyrimidin-4-amine], 501 to 1000 nM. On to `c1cc(-c2nccc(Nc3c[nH]nc3-c3nc4ccccc4[nH]3)n2)c2[nH]ccc2c1` [Compound 37, N-(3-(1H-Benzo[d]imidazol-2-yl)-1H-pyrazol-4-yl)-2-(1H-indol-7-yl)pyrimidin-4-amine], for which the IC50 is above 10000 nM. Still for that read-out and setting: in the case of `Clc1ccccc1Oc1nccc(Nc2c[nH]nc2-c2nc3cc(CN4CCOCC4)ccc3[nH]2)n1` [Compound 48, 2-(2-Chlorophenoxy)-N-(3-(5-(morpholinomethyl)-1H-benzo[d]imidazol-2-yl)-1H-pyrazol-4-yl)pyrimidin-4-amine] it was 501 to 1000 nM; in that of `Clc1cccc(Oc2nccc(Nc3c[nH]nc3-c3nc4cc(CN5CCOCC5)ccc4[nH]3)n2)c1` [Compound 49, 2-(3-Chlorophenoxy)-N-(3-(5-(morpholinomethyl)-1H-benzo[d]imidazol-2-yl)-1H-pyrazol-4-yl)pyrimidin-4-amine], 501 to 1000 nM; in that of `Clc1ccc(Oc2nccc(Nc3c[nH]nc3-c3nc4cc(CN5CCOCC5)ccc4[nH]3)n2)cc1` [Compound 50, 2-(4-Chlorophenoxy)-N-(3-(5-(morpholinomethyl)-1H-benzo[d]imidazol-2-yl)-1H-pyrazol-4-yl)pyrimidin-4-amine], 501 to 1000 nM.

For the origin of these results see EP4293019A1, “4-SUBSTITUTED (1H-BENZO[D]IMIDAZOL-2-YL)-1H-PYRAZOLES AS BUB1 INHIBITORS USEFUL FOR TREATING CANCERS” (Netherlands Translational Research Center Holding B.V., priority 2022, dated 2023).
